Results taken from patent publication US20090304766A1, “LOCALIZED DELIVERY OF DRUG COMBINATIONS” (priority 2005, published 2009).

Experiment: in vitro combination dose-effect analysis (cytotoxicity, Chou-Talalay combination index)
Type: cell-based
Conditions: FIG. 2D; single agent compared with combination
Description: By way of illustration, individual agents and various combinations thereof are tested for their biological effect on cell culture or a cell-free system, for example causing cell death or inhibiting cell growth, at various concentration levels. The concentration levels of the preset ratios are plotted against the percentage cell survival to obtain a correlation which can be manipulated by known and established mathematical techniques to calculate a “combination index” (CI). The mathematics are such that a CI of 1 (i.e., 0.9-1.1) describes an additive effect of the drugs; a CI>1 (i.e., >1.1) represents an antagonist effect; and a CI of <1 (i.e., <0.9) represents a synergistic effect.
As shown, agents A and B are tested individually and together at two different ratios for their ability to cause cell death or cell stasis as assessed by the MTT assay described below. Initially, correlations between the concentration of drugs A, B, and the two different combination ratios (Y:Z and X:Y) are plotted against cytotoxicity, calculated as a percentage based on the survival of untreated control cells. […] Once this correlation has been established, the cell survival or fraction affected (fa) can be used as a surrogate for concentration in calculating the CI. […]

| Structure (SMILES) | concentration required to achieve a 90% cell kill on its own versus when combined at a non-antagonistic ratio |
| --- | --- |
| N.N.O=C([O-])C1(C(=O)[O-])CCC1.[Pt+2] [carboplatin] | significantly higher |
| CCc1c2c(nc3ccc(OC(=O)N4CCC(N5CCCCC5)CC4)cc13)-c1cc3c(c(=O)n1C2)COC(=O)[C@]3(O)CC [irinotecan] | significantly higher |
